Source: US4857546A, “Novel HMG-CoA reductase inhibitors” (Merck & Co., Inc., priority 1988, dated 1989)

Target: T1, HMG-CoA reductase (Rattus norvegicus, UniProt P51639)
T1 sequence (P51639 1-887): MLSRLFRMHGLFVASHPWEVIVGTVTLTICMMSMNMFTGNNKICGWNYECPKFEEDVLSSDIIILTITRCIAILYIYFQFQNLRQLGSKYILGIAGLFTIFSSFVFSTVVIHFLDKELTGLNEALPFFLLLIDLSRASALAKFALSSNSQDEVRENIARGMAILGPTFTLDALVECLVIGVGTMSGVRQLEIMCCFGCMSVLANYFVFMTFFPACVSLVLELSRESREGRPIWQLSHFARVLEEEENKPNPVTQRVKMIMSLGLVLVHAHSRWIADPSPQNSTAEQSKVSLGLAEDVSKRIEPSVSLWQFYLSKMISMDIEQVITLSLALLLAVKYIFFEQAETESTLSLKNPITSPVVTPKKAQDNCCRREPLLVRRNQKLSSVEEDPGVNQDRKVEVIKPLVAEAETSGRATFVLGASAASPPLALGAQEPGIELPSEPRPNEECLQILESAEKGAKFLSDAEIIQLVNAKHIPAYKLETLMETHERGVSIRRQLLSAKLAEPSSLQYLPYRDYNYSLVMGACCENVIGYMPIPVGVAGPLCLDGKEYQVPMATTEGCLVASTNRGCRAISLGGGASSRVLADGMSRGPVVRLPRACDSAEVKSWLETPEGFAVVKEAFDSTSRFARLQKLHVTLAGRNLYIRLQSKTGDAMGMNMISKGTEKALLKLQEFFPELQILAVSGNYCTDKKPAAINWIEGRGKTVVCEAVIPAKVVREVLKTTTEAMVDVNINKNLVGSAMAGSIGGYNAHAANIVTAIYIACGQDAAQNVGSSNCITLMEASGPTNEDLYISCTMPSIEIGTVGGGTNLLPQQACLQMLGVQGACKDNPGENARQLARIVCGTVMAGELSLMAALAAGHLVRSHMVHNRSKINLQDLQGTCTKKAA
Experiment: intrinsic HMG-CoA reductase inhibition, in vitro protocol of J. Med. Chem. 28, 347-358 (1985)
Assay type: biochemical
Conditions: IC50 of test compound compared with that of compactin (mevastatin) determined simultaneously; compactin assigned 100
Description: The intrinsic HMG-CoA reductase inhibition activity of the claimed compounds is measured in the in vitro protocol published in J. Med. Chem. 28, p. 347-358 (1985).
For estimation of relative inhibitory potencies, mevastatin (compactin) was assigned a value of 100 and the IC50 value of the test compound was compared with that of compactin determined simultaneously in the published in vitro protocol.

Row | SMILES | Relative Potency
1 | CCC(C)(C)C(=O)O[C@H]1C[C@H](CN)C=C2C=C[C@H](C)[C@H](CC[C@@H](O)C[C@@H](O)CC(=O)O)[C@H]21 [Example 1] | 125
2 | CCC(C)(C)C(=O)O[C@H]1C[C@H](CNCc2ccccc2)C=C2C=C[C@H](C)[C@H](CC[C@@H]3C[C@@H](O)CC(=O)O3)[C@H]21 [Example 2, 6(R)-[2-[8(S)-(2,2-dimethylbutyryloxy)-2(S)-methyl-6(S)-benzylaminomethyl-1,2,6,7,8, 8a(R)-hexahydronaphthyl-1(S)]ethyl]-4(R)-hydroxy-3,4,5,6-tetrahydro-2H-pyran-2-one] | 167
3 | CCC(C)(C)C(=O)O[C@H]1C[C@H](CNC(=O)c2ccccc2)C=C2C=C[C@H](C)[C@H](CC[C@@H]3C[C@@H](O)CC(=O)O3)[C@H]21 [Example 3, 6(R)-[2-[8(S)-(2,2-dimethylbutyryloxy)-2(S)-methyl-6(S)-phenylcarbonylaminomethyl-1,2,6,7,8,8a(R)-hexahydronaphthyl-1(S)]ethyl]-4(R)-hydroxy-3,4,5,6-tetrahydro-2H-pyran-2-one] | 300
4 | CCC(C)(C)C(=O)O[C@H]1C[C@H](CNC(=O)Nc2ccccc2)C=C2C=C[C@H](C)[C@H](CC[C@@H]3C[C@@H](O)CC(=O)O3)[C@H]21 [Example 4, 6(R)-[2-[8(S)-(2,2-dimethylbutyryloxy)-2(S)-methyl-6(S)-phenylureidomethyl-1,2,6,7,8,8a(R)-hexahydronaphthyl-1(S)]ethyl]-4(R)-hydroxy-3,4,5,6-tetrahydro-2H-pyran-2-one] | 294
5 | CCC(C)(C)C(=O)O[C@H]1C[C@H](CNC(=O)NCc2ccccc2)C=C2C=C[C@H](C)[C@H](CC[C@@H]3C[C@@H](O)CC(=O)O3)[C@H]21 [Example 5, 6(R)-[2-[8(S)-(2,2-dimethylbutyryloxy)-2(S)-methyl-6(S)-benzylureidomethyl-1,2,6,7,8,8a(R)-hexahydronaphthyl-1(S)]ethyl]-4(R)-hydroxy-3,4,5,6-tetrahydro-2H-pyran-2-one] | 500
